Assay results from patent US7902373B2 (Pfizer Inc, priority 2006, dated 2011).

Each compound was assayed against human recombinant H-PGDS (Homo sapiens, UniProt O60760) (assay: Fluorescence intensity h-PGDS TBA enzyme assay). Conditions: Examples up to 622 (and 3a, 3b).
Type: biochemical

human recombinant H-PGDS, sequence (O60760 whole entry): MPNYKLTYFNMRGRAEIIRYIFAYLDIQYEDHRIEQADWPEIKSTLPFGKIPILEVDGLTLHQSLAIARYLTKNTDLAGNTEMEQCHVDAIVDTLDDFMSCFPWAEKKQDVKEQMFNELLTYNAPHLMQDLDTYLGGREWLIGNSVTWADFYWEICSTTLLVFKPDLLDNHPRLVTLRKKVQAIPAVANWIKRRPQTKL

Row | IC50 [nM] | Structure (SMILES)
1 | 2.99 | Cn1cnc(CN2CCC(NC(=O)c3ccc(-c4cccc(F)c4)nc3)CC2)c1 [Example 374, 6-(3-Fluorophenyl)-N-{1-[(1-methyl-1H-imidazol-4-yl)methyl]piperidin-4-yl}nicotinamide]
2 | 0.667 | O=C(NC1CCN(Cc2cccc(-n3cccn3)n2)CC1)c1ccc(-c2cccc(F)c2)nc1 [Example 375, 6-(3-Fluorophenyl)-N-(1-{[6-(1H-pyrazol-1-yl)pyridin-2-yl]methyl}piperidin-4-yl)nicotinamide]
3 | 0.876 | Cn1ccnc1-c1ccc(CN2CCC(NC(=O)c3ccc(-c4cccc(F)c4)nc3)CC2)cc1 [Example 376, 6-(3-Fluorophenyl)-N-{1-[4-(1-methyl-1H-imidazol-2-yl)benzyl]piperidin-4-yl}nicotinamide]
4 | 0.491 | O=C(NC1CCN(Cc2cccn3c(Br)cnc23)CC1)c1ccc(-c2cccc(F)c2)nc1 [Example 377, N-{1-[(3-Bromoimidazo[1,2-a]pyridin-8-yl)methyl]piperidin-4-yl}-6-(3-fluorophenyl)nicotinamide]
5 | 1.41 | O=C(NC1CCN(Cc2ccc(=O)[nH]c2)CC1)c1ccc(-c2cccc(F)c2)nc1 [Example 378, 6-(3-Fluorophenyl)-N-{1-[(6-oxo-16-dihydropyridin-3-yl)methyl]piperidin-4-yl}nicotinamide]
6 | 1.43 | CCOC(=O)c1cn2c(CN3CCC(NC(=O)c4ccc(-c5cccc(F)c5)nc4)CC3)cccc2n1 [Example 379, Ethyl 5-{[4-({[6-(3-fluorophenyl)pyridin-3-yl]carbonyl}amino)piperidin-1-yl]methyl}imidazo[1,2-a]pyridine-2-carboxylate]
7 | 1.25 | Cc1ccc(-c2cccc(CN3CCC(NC(=O)c4ccc(-c5cccc(F)c5)nc4)CC3)c2)c(N)n1 [Example 380, N-{1-[3-(2-Amino-6-methylpyridin-3-yl)benzyl]piperidin-4-yl}-6-(3-fluorophenyl)nicotinamide]
8 | 0.0854 | O=C(NC1CCN(Cc2cccc(-c3cncnc3)c2)CC1)c1ccc(-c2cccc(F)c2)nc1 [Example 381, 6-(3-Fluorophenyl)-N-[1-(3-pyrimidin-5-ylbenzyl)piperidin-4-yl]nicotinamide]
9 | 0.681 | O=C(NC1CCN(Cc2cn[nH]c2-c2ccccc2Cl)CC1)c1ccc(-c2cccc(F)c2)nc1 [Example 382, N-(1-{[5-(2-Chlorophenyl)-1H-pyrazol-4-yl]methyl}piperidin-4-yl)-6-(3-fluorophenyl)nicotinamide]
10 | 1.25 | Cc1ccn2c(CN3CCC(NC(=O)c4ccc(-c5cccc(F)c5)nc4)CC3)c(C)nc2c1 [Example 383, N-{1-[(2,7-Dimethylimidazo[1,2,a]pyridin-3-yl)methyl]piperidin-4-yl}-6-(3-fluorophenyl)nicotinamide]
11 | 0.959 | O=C(NC1CCN(Cc2ccn[nH]2)CC1)c1ccc(-c2cccc(F)c2)nc1 [Example 384, 6-(3-Fluorophenyl)-N-[1-(1H-pyrazol-5-ylmethyl)piperidin-4-yl]nicotinamide]
12 | 11.7 | N#CC1(c2ccc(CN3CCC(NC(=O)c4ccc(-c5cccc(F)c5)nc4)CC3)cc2)CC=CC1 [Example 385, N-{1-[4-(1-Cyanocyclopent-3-en-1-yl)benzyl]piperidin-4-yl}-6-(3-fluorophenyl)nicotinamide]
13 | 1.2 | O=C(NC1CCN(Cc2cnn3c2CCCC3)CC1)c1ccc(-c2cccc(F)c2)nc1 [Example 386, 6-(3-Fluorophenyl)-N-[1-(4,5,6,7-tetrahydropyrazolo[1,5-a]pyridin-3-ylmethyl)piperidin-4-yl]nicotinamide]
14 | 1.85 | O=C(NC1CCN(Cc2cnn3c2CCCCC3)CC1)c1ccc(-c2cccc(F)c2)nc1 [Example 387, 6-(3-Fluorophenyl)-N-[1-(5,6,7,8-tetrahydro-4H-pyrazolo[1,5-a]azepin-3-ylmethyl)piperidin-4-yl]nicotinamide]
15 | 0.951 | CCc1noc(COc2cccc(CN3CCC(NC(=O)c4ccc(-c5cccc(F)c5)nc4)CC3)c2)n1 [Example 388, N-(1-{3-[(3-Ethyl-1,2,4-oxadiazol-5-yl)methoxy]benzyl}piperidin-4-yl)-6-(3-fluorophenyl)nicotinamide]
16 | 2.23 | Cc1nccc(CN2CCC(NC(=O)c3ccc(-c4cccc(F)c4)nc3)CC2)n1 [Example 389, 6-(3-Fluorophenyl)-N-{1-[(2-methylpyrmidin-4-yl)methyl]piperidin-4-yl}nicotinamide]
17 | 11.6 | CN(c1nccc(CN2CCC(NC(=O)c3ccc(-c4cccc(F)c4)nc3)CC2)n1)C1CCCCC1 [Example 390, N-[1-({2-[Cyclohexyl(methyl)amino]pyrimidin-4-yl}methyl)piperidin-4-yl]-6-(3-fluorophenyl)nicotinamide]
18 | 1.2 | COCCCNc1nccc(CN2CCC(NC(=O)c3ccc(-c4cccc(F)c4)nc3)CC2)n1 [Example 391, 6-(3-Fluorophenyl)-N-[1-({2-[(3-methoxypropyl)amino]pyrimidin-4-yl}methyl)piperidin-4-yl]nicotinamide]

Row | IC50 [nM] | Structure (SMILES)
19 | 0.849 | CN(C)c1nccc(CN2CCC(NC(=O)c3ccc(-c4cccc(F)c4)nc3)CC2)n1 [Example 392, N-(1-{[2-(Dimethylamino)pyrimidin-4-yl]methyl}piperidin-4-yl)-6-(3-fluorophenyl)nicotinamide]
20 | 1.18 | O=C(NC1CCN(Cc2ccnc(NC3CC3)n2)CC1)c1ccc(-c2cccc(F)c2)nc1 [Example 393, N-(1-{[2-(Cyclopropylamino)pyrimidin-4-yl]methyl}piperidin-4-yl)-6-(3-fluorophenyl)nicotinamide]
21 | 0.379 | O=C(NC1CCN(Cc2ccn(CCc3ccccc3)n2)CC1)c1ccc(-c2cccc(F)c2)nc1 [Example 394, 6-(3-Fluorophenyl)-N-(1-{[1-(2-phenylethyl)-1H-pyrazol-3-yl]methyl}piperidin-4-yl)nicotinamide]
22 | 1.43 | O=C(NC1CCN(Cc2ccnn2CCc2ccccc2)CC1)c1ccc(-c2cccc(F)c2)nc1 [Example 395, 6-(3-Fluorophenyl)-N-(1-{[1-(2-phenylethyl)-1H-pyrazol-5-yl]methyl}piperidin-4-yl)nicotinamide]
23 | 1.45 | Cn1ccc(CN2CCC(NC(=O)c3ccc(-c4cccc(F)c4)nc3)CC2)n1 [Example 396, 6-(3-Fluorophenyl)-N-{1-[(1-methyl-1H-pyrazol-3-yl)methyl]piperidin-4-yl}nicotinamide]
24 | 1.47 | O=C(NC1CCN(Cc2ccnc(N3CCOCC3)n2)CC1)c1ccc(-c2cccc(F)c2)nc1 [Example 397, 6-(3-Fluorophenyl)-N-{1-[(2-morpholin-4-ylpyrimidin-4-yl)methyl]piperidin-4-yl}nicotinamide]
25 | 8.56 | CCN(C)c1ncc2c(n1)CCC(CN1CCC(NC(=O)c3ccc(-c4cccc(F)c4)nc3)CC1)C2 (stereo not drawn) [Example 398, N-[1-({2-[Ethyl(methyl)amino]-5,6,7,8-tetrahydroquinazolin-6-yl}methyl)piperidin-4-yl]-6-(3-fluorophenyl)nicotinamide]
26 | 1.02 | O=C(NC1CCN(CC2CCc3nc(CC4CC4)ncc3C2)CC1)c1ccc(-c2cccc(F)c2)nc1 (stereo not drawn) [Example 399, N-(1-{[2-(cyclopropylmethyl)-5,6,7,8-tetrahydroquinazolin-6-yl]methyl}piperidin-4-yl)-6-(3-fluorophenyl)nicotinamide]
27 | 1.04 | CC(C)c1ncc2c(n1)CCC(CN1CCC(NC(=O)c3ccc(-c4cccc(F)c4)nc3)CC1)C2 (stereo not drawn) [Example 400, 6-(3-Fluorophenyl)-N-{1-[(2-isopropyl-5,6,7,8-tetrahydroquinazolin-6-yl)methyl]piperidin-4-yl}nicotinamide]
28 | 0.574 | Cc1ncc2c(n1)CCC(CN1CCC(NC(=O)c3ccc(-c4cccc(F)c4)nc3)CC1)C2 (stereo not drawn) [Example 401, 6-(3-Fluorophenyl)-N-{1-[(2-methyl-5,6,7,8-tetrahydroquinazolin-6-yl)methyl]piperidin-4-yl}nicotinamide]
29 | 1.64 | CC(C)(C)c1ncc2c(n1)CCC(CN1CCC(NC(=O)c3ccc(-c4cccc(F)c4)nc3)CC1)C2 (stereo not drawn) [Example 402, N-{1-[(2-tert-Butyl-5,6,7,8-tetrahydroquinazolin-6-yl)methyl]piperidin-4-yl}-6-(3-fluorophenyl)nicotinamide]
30 | 0.121 | CCCc1ncc2c(n1)CCC(CN1CCC(NC(=O)c3ccc(-c4cccc(F)c4)nc3)CC1)C2 (stereo not drawn) [Example 403, 6-(3-Fluorophenyl)-N-{1-[(2-propyl-5,6,7,8-tetrahydroquinazolin-6-yl)methyl]piperidin-4-yl}nicotinamide]
31 | 0.469 | COCCOc1c(CN2CCC(NC(=O)c3ccc(-c4cccc(F)c4)nc3)CC2)cccc1OC [Example 404, 6-(3-Fluorophenyl)-N-{1-[3-methoxy-2-(2-methoxyethoxy)benzyl]piperidin-4-yl}nicotinamide]
32 | 0.483 | COc1cc(CN2CCC(NC(=O)c3ccc(-c4cccc(F)c4)nc3)CC2)ccc1OCC(F)F [Example 405, N-{1-[(2,2-Difluoroethoxy)-3-methoxybenzyl]piperidin-4-yl}-6-(3-fluorophenyl)nicotinamide]
33 | 2.36 | O=C(NC1CCN(Cc2cn3ccccc3n2)CC1)c1ccc(-c2cccc(F)c2)nc1 [Example 406, 6-(3-Fluorophenyl)-N-[1-(imidazo[1,2-a]pyridin-2-ylmethyl)piperidin-4-yl]nicotinamide]
34 | 5.4 | O=C(NC1CCN(Cc2nc(-c3ccc(F)cc3)cs2)CC1)c1ccc(-c2cccc(F)c2)nc1 [Example 407, 6-(3-Fluorophenyl)-N-(1-{[4-(4-fluorophenyl)-1,3-thiazol-2-yl]methyl}piperidin-4-yl)nicotinamide]
35 | 61.9 | O=C(NC1CCN(Cc2nc(-c3cccc(F)c3)cs2)CC1)c1ccc(-c2cccc(F)c2)nc1 [Example 408, 6-(3-Fluorophenyl)-N-(1-{[4-(3-fluorophenyl)-1,3-thiazol-2-yl]methyl}piperidin-4-yl)nicotinamide]
36 | 2.25 | COc1cccc(-c2csc(CN3CCC(NC(=O)c4ccc(-c5cccc(F)c5)nc4)CC3)n2)c1 [Example 409, 6-(3-Fluorophenyl)-N-(1-{[4-(3-methoxyphenyl)-1,3-thiazol-2-yl]methyl}piperidin-4-yl)nicotinamide]
